From patent US7763287B2, “Extract of Cercis chinensis having anti-oxidant activity and anti-aging activity, and cosmetical composition containing the extract for anti-oxidation, skin-aging protection and wrinkle improvement” (Hankook Pharm. Co., Inc., priority 2002, dated 2010)

Columns and labels:
[1] = test system: back skin of SKH-1 hairless mouse; experiment: Protection of skin tissues from UVB irradiation in hairless mice; assay type: in vivo
Procedure: 5-6 week old female hairless mice (SKH-hr 1) were raised for 14 days at 24±2° C. with 50±10% relative humidity and 12 hour day/night cycle. 30-60 minutes before the experiment, a sample was hyperdermically injected on 5 spots of the mice and the backs of the mice were irradiated by UVB. 5 mice per each group were put in a cage (20×15×5 cm) and UVB irradiation was performed using a UV lamp (HP-15M, 280-400 nm, max. 312 nm; Atto Co., Japan) at 15 cm distance by 15 kJ/m^2. After the completion of UV irradiation for 24 hours, back skin was cut and stored at −70° C. until peroxidation was measured.
UVB irradiation causes serious lipid peroxidation in skin tissues, so measurement of the peroxided lipid content might lead to the measurement of skin damages. Particularly, UVB was irradiated on the back skin of SKH-1 hairless mouse. 48 hours later, the back skin tissues were cut to measure lipid peroxidation by thiobarbituric acid (TBA) method. The back skin of the mouse was put in a 10×50 mM K-P buffer solution for homogenation.
Hydrogen peroxidation was also investigated. The frozen back skin section was put in 0.1 M Tris-HCl buffer solution (pH 7.5) containing 1 mg/ml of glucose and 1 mg/ml diaminobenzidine (DAB), which was cultured at 37° C. for 5-6 hours. After being washed with distilled water, the solution was stained with 2% methyl green for 60 minutes. Nucleus stained blue and DAB peroxidase (brown) were observed under a microscope.

[2] = Superoxide radical scavenging activity (xanthine/xanthine oxidase, NBT); assay type: biochemical; details: Table 6
Procedure: Superoxide radical (O^2−) itself has a little reactivity, but is easily changed into H2O2 that generates hydroxyl radical having strong reactivity or is reacted with nitric oxide (NO.) to generate peroxy nitrite (ONOO^−) having strong reactivity, too. Thus, it might be a reason for oxidation of SH-group, nitration of protein tyrosine, lipid peroxidation and DNA damage. […] Basically, measurement of superoxide radical scavenging activity was performed by investigating the activity of superoxide dismutase (SOD), an enzyme scavenging superoxide by dismutation of the same. In the present invention, an activity of a sample to inhibit superoxide production by the enzyme reaction of xanthine/xanthine oxidase and its another activity to inhibit reaction (NBT+20^2−→NBTH2+2O2) generating formazan by reduction of nitro blue tetrazolium (referred as ‘NBT’ hereinafter) were measured. Particularly, wells of a 96-well plate were supplemented with 50 μl of 4 mM xanthine (Sigma), 50 μl of […] NBT (Sigma), 50 μl of 50 mM phosphate buffer (pH 7.8, 1 mM EDTA) and 10 μl of each sample, into which 40 μl of xanthine oxidase was added to induce a reaction. After the reaction was completed, each reaction solution was collected as scheduled, and OD550 was measured with an ELISA reader. […] Superoxide Radical Scavenging Activity (%)=(Acontrol−Asample)/(Acontrol−Ablank)×100 <Mathematical Formula 4> […]

[3] = Nitric oxide scavenging activity; assay type: biochemical; design: Nitric oxide scavenging activity (%): concentration or dose not given beside the values
[4] = Hydroxyl radical scavenging activity (deoxyribose/TBA, method of Halliwell); assay type: biochemical; details: for Hydroxyl radical scavenging activity (%): 10 μg of sample, total volume 1 ml
Procedure: Hydroxyl radical (HO.) is generated by the reaction of a metal ion or a superoxide radical. Owing to its strong reactivity, hydroxyl radical causes oxidative damages to DNA, protein and lipid in vivo. Nitric oxide (NO.) is reacted with a superoxide radical to generate a peroxy nitrite (ONOO—), also having strong reactivity. […] Particularly, each compound was mixed with 10 μg of a sample dissolved in DMSO, phosphate buffer (20 mM, pH 7.4) 5.6 mM deoxyribose, 0.1 mM FeCl3, 1 mM H2O2 and 0.1 mM ascorbic acid, making total volume 1 ml, which was then reacted at 37° C. for 60 minutes. 250 μl of 20% TCA and 250 μl of 1% TBA solution (dissolved in 50 mM NaOH) were added to the reaction solution, followed by thermal reaction at 95° C. for 5 minutes. After completing the reaction, OD532 was measured. Hydroxyl radical scavenging activity was calculated by the below
<Mathematical Formula 3>. BHA and α-tocopherol were used for a positive control. Hydroxyl Radical Scavenging Activity (%)=(Acontrol−Asample)/(Acontrol−Ablank)×100 <Mathematical Formula 3>
Acontrol: Optical density of control group well (sample was not added),
Asample: Optical density of experimental group well (sample was added),
Ablank: Optical density of well not added with sample, TCA and TBA

[5] = DPPH radical scavenging activity; assay type: biochemical; details: Table 3
Procedure: In order to extract an effective ingredient having an anti-oxidant activity from Cercis chinensis, an experiment was performed following the procedure represented in a schematic diagram of FIG. 1. Particularly, 1 kg of leaves and stems of Cercis chinensis, dried in shadow, were grinded to powder using a pulverizer, which was extracted by ethanol (EtOH) at room temperature twice at intervals of two weeks. For the extraction, ethanol solutions were prepared by adding ethanol gradually, 10% at a time, from 0% to 100%. The prepared ethanol solutions were used for the extraction. […] But, it looses absorbance when being scavenged. Based on that point, an anti-oxidant activity can be measured using DPPH. […] Then, each solution was distributed into a 96 well plate by 10 μl each, into which 190 μl of DPPH(Sigma, St. Louis, Mo, USA) solution whose ethanol concentration was 2×10^−4 M/ml was added. The plate was just left at room temperature for 30 minutes. Finally, OD517 was measured at 517 nm. For a control, DMSO was added instead of the sample, and changes of optical density were investigated. […] DDPH Radical Scavenging Activity (%)=(Acontrol−Asample)/(Acontrol)×100 <Mathematica Formula 1>
Acontrol: Optical density of control group (sample was not added),
Asample: Optical density of experimental group (sample was added).
In order to identify a fraction having an anti oxidant activity among hexane Fr, EtOAc Fr and BuOH Fr obtained above, a DPPH radical scavenging activity was measured using each extract of each fraction following the method used above. At this time, vitamin E, known to have high DPPH radical scavenging activity, was used as a comparing group.
At this time, BHA (tert-butyl-4 hydroxyanisole) and α-tocopherol, synthetic anti-oxidant agents, were used as positive controls.

rat brain homogenates = experiment: Lipid peroxidation inhibitory activity (Fe2+/ascorbic acid, TBA method); details: Table 4
HEK-N/F cells = experiment: Protection of cells from oxidative damage induced by t-butylhydroperoxide; assay type: cell-based, human; details: 1.5 mM t-butylhydroperoxide 3 hours; for TBARS (pmol/mg protein): compound 50.0 µg/ml
Procedure: t-butylhydroperoxide is metabolized into a free radical intermediate as it comes in a cell, so that it causes lipid peroxidation, resulting in cell damage. This phenomenon is similar to that caused by oxidataive stress accumulated in cells and tissues. […] HEK-N/F, an epidermal cell line of a newborn baby, was treated with 1.5 mM of t-butylhydroxyperoxide for 3 hours.

Molecule | TBARS (nmol/mg protein) ([1]; treating amount 30 mg/kg + UVB irradiation) | TBARS (nmol/mg protein) ([1]; treating amount 50 mg/kg + UVB irradiation) | Superoxide radical scavenging activity IC50 [2] | Nitric oxide scavenging activity (%) [3] | Nitric oxide scavenging activity (in words) [3] | Hydroxyl radical scavenging activity (in words) [4] | Hydroxyl radical scavenging activity (%) [4] | DPPH radical scavenging activity IC50 [5] | Lipid Peroxidation Inhibitory Activity IC50 (rat brain homogenates) | Cell survival rate (%) (HEK-N/F cells) | TBARS (pmol/mg protein) (HEK-N/F cells)
O=C1O[C@H]([C@@H](O)CO)C([O-])=C1OP(=O)([O-])[O-].O=C1O[C@H]([C@@H](O)CO)C([O-])=C1OP(=O)([O-])[O-].[Mg+2].[Mg+2].[Mg+2] [MAP, magnesium-L-ascorbyl-2-phosphate, reference compound] | 0.28 ± 0.06 nmol/mg protein | 0.16 ± 0.05 nmol/mg protein | – | – | – | – | – | – | – | – | –
(−)-epigallocatechin-3-O-gallate [Chemical Formula 18] | – | – | 24.0 ± 3.5 µg/mL | 26.2 ± 0.9% | comparatively high nitric oxide scavenging activity | remarkably higher hydroxyl radical scavenging activities | 54.0% | 6.7 ± 0.4 µg/mL | 1.00 ± 0.08 µg/mL | 46.6 ± 5.9% | 1032.6 ± 103.5 pmol/mg protein
COc1cc(-c2oc3cc(O)cc(O)c3c(=O)c2O[C@@H]2O[C@H](CO[C@@H]3O[C@@H](C)[C@H](O)[C@@H](O)[C@H]3O)[C@@H](O)[C@H](O)[C@H]2O)cc(OC)c1O [Chemical Formula 14, syringetin-3-O-rutinoside] | – | – | 45.2 ± 2.2 µg/mL | 6.0 ± 0.8% | – | – | 10.2% | 35.1 ± 1.5 µg/mL | 19.0 ± 1.52 µg/mL | 20.0 ± 2.6% | 2928.1 ± 209.9 pmol/mg protein
CC1OC(Oc2c(-c3cc(O)c(O)c(O)c3)oc3cc(O)cc(O)c3c2=O)C(OC(=O)c2cc(O)c(O)c(O)c2)C(O)C1O [Chemical Formula 13, myricetin-3-O-(2″-O-galloyl)-α-L-rhamnopyranoside] | – | – | 13.2 ± 2.5 µg/mL | 23.0 ± 0.6% | – | remarkably higher hydroxyl radical scavenging activities | 45.4% | 8.6 ± 0.7 µg/mL | 4.73 ± 0.41 µg/mL | 45.1 ± 3.6% | 1019.8 ± 154.0 pmol/mg protein
COC(=O)c1cc(O)c(O)c(O)c1 [Chemical Formula 7, methyl gallate] | – | – | 16.5 ± 1.4 µg/mL | 32.6 ± 2.8% | – | remarkably higher hydroxyl radical scavenging activities | 43.8% | 5.3 ± 0.3 µg/mL | 7.05 ± 0.87 µg/mL | 43.0±5.6% | 1024.4 ± 91.9 pmol/mg protein
